According to PubChem BioAssay AID1845211 (Molecular Pharmacology Branch, DTP, NCI, 2023):

Test system: NCI-H322M multicellular tumor spheroids, viability (% test/control)
Test: Anticancer human tumor NCI-H322M cell line growth inhibition;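 as to viability, T/C: spheroids exposed to compound for seven days before readout; 100% = DMSO vehicle control wells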
Details: for IC50: curve of first compound; for viability, T/C: stronger effect = lower value
Description: Multicellular complex tumor spheroid response to DNA repair inhibitors in combination with DNA-damaging drugs
This study explores the anticancer activities of DNA-damaging drugs and inhibitors of DNA damage repair, both as single agents and in combinations. Complex tumor spheroids comprised of malignant cells, endothelial cells and mesenchymal stem cells served as an in vitro model for human solid tumors. This model system incorporates physiologically relevant features and patient-derived or established malignant cell lines with clinically relevant genetic alterations from many tumor types. Twenty-six patient-derived or established malignant cell lines were evaluated representing sarcoma, melanoma, small cell lung cancer (SCLC), non-small cell lung cancer (NSCLC), as well as bladder, ovarian and pancreatic cancers. The concentration ranges selected for each drug and investigational agent were based upon clinically achievable concentrations if the clinical Cmax of the agent was known.
Compounds. The drugs and compounds olaparib (NSC753686), talazoparib (NSC767125), berzosertib (NSC777718), elimusertib (NSC800525), nedisertib (NSC802822), VX-984 (NSC792969), AZD-1390 (NSC803789), temozolomide (NSC362856), topotecan (NSC609699), trabectedin (NSC813783), staurosporine (NSC755774), and gemcitabine (NSC613327) were obtained from the National Cancer Institute (NCI) Developmental Therapeutics Program Chemical Repository. The FDA-approved anticancer drug set is available from the Developmental Therapeutics Program at https://dtp.cancer.gov/organization/dscb/obtaining/available_plates.htm. […] The stock solutions were prepared in dimethyl sulfoxide (DMSO, Sigma-Aldrich, St. Louis, MO, cat. D2650) at 400-fold the tested concentration and stored at -70 degrees C. Prior to their use, the stock solutions were diluted in fresh medium and the final DMSO concentration in the assay was 0.25% (v/v). All drugs and investigational agents were tested over a range starting from a high concentration at or near the clinical Cmax and decreasing in half-log increments. If the clinical Cmax for an agent had not been determined, the highest concentration tested was 10 microM.
Cell Lines. The patient-derived cancer cell (PDC) lines: 156681-154-R-J1-PDC, 283228-195-R-J1-PDC, 287954-098-R-J1-PDC, 292921-168-R-J2-PDC, 349418-098-R-PDC, 425362-245-T-J1-PDC, 556581-035-R-J1-PDC, and BL0293-F563-PDC were received from the NCI Patient-Derived Models Repository (PDMR, https://pdmr.cancer.gov). The established cell lines HS-SY-2 (RRID:CVCL_8719), MPNST, and SYO-1 (RRID:CVCL_7146) were obtained from the Sloan Kettering Institute. The alveolar soft parts sarcoma cell line ASPS-1 (RRID:CVCL_S738) was established at the NCI and grown from internal seed stocks. The following established cell lines were purchased from the American Type Culture Collection (ATCC, Manassas, VA): G-401 (ATCC, cat. CRL-1441, RRID:CVCL_0270), SW982 (ATCC, cat. HTB-93, RRID:CVCL_1734), VA-ES-BJ (ATCC, cat. CRL-2138, RRID:CVCL_1785), NCI-H719 (ATCC, cat. CRL-5837, RRID:CVCL_1582), NCI-H196 (ATCC, cat. CRL-5823, RRID:CVCL_1509), NCI-H841 (ATCC, cat. CRL-5845, RRID:CVCL_1595), NCI-H1618 (ATCC, cat. CRL-5879, RRID:CVCL_1480), NCI-H1876 (ATCC, cat. CRL-5902, RRID:CVCL_1503), DMS 114 (ATCC, cat. CRL-2066; RRID:CVCL_1174), NCI-H211 (ATCC, cat. CRL-5824; RRID:CVCL_1529), and SW 1271 (ATCC, cat. CRL-2177, RRID:CVCL_1716). The small cell lung cancer cell line COR-L88 was purchased from Sigma-Aldrich (cat. 92031917-1VL, RRID:CVCL_1141). The non-small cell lung cancer cell lines NCI-H226 (RRID:CVCL_1544) and NCI-H322M (RRID:CVCL_1557) were established at the NCI and grown from internal seed stocks. Pooled donor human umbilical vein endothelial cells (HUVEC, Lonza, cat. CC-2519) and human mesenchymal stem cells (hMSC, Lonza, cat. PT-2501) were purchased from Lonza (Walkersville, MD).
Cell Culture. All cells were maintained in an incubator at 37 degrees C and 5% CO2 with 95% humidity. […]

[1] = second compound 0.003 µM, first compound 0.0316 µM
[2] = second compound 0.003 µM, first compound 0.1 µM
[3] = second compound 0.003 µM, first compound 0.316 µM
[4] = second compound 0.003 µM, first compound 1 µM
[5] = second compound 0.003 µM, first compound 3.16 µM
[6] = second compound 0.003 µM, first compound 10 µM

## COc1ccc([C@@H](O)c2cc(-c3ncnc4cc(N5CCOCC5)ccc34)c(F)cc2Cl)nn1 + CC[C@@]1(O)C(=O)OCc2c1cc1n(c2=O)Cc2cc3c(CN(C)C)c(O)ccc3nc2-1
Second compound 0.003 µM
  IC50: 1670 nM
Second compound 0.00949 µM
  IC50: 1360 nM
Second compound 0.03 µM
  IC50: 1050 nM
Second compound 0.0949 µM
  IC50: 721 nM
Second compound 0.3 µM
  IC50: 384 nM
[1]
  viability, T/C: 79.4%
[2]
  viability, T/C: 88.7%
[3]
  viability, T/C: 91.2%
[4]
  viability, T/C: 59.2%
[5]
  viability, T/C: 45%
[6]
  viability, T/C: 32.2%
Second compound 0.00949 µM, first compound 0.0316 µM
  viability, T/C: 80.8%
Second compound 0.00949 µM, first compound 0.1 µM
  viability, T/C: 75.8%
Second compound 0.00949 µM, first compound 0.316 µM
  viability, T/C: 79.7%
Second compound 0.00949 µM, first compound 1 µM
  viability, T/C: 52.5%
Second compound 0.00949 µM, first compound 3.16 µM
  viability, T/C: 45.4%
Second compound 0.00949 µM, first compound 10 µM
  viability, T/C: 32.2%
Second compound 0.03 µM, first compound 0.0316 µM
  viability, T/C: 72.5%
Second compound 0.03 µM, first compound 0.1 µM
  viability, T/C: 80.1%
Second compound 0.03 µM, first compound 0.316 µM
  viability, T/C: 61.8%
Second compound 0.03 µM, first compound 1 µM
  viability, T/C: 51.8%
Second compound 0.03 µM, first compound 3.16 µM
  viability, T/C: 37.2%
Second compound 0.03 µM, first compound 10 µM
  viability, T/C: 30.2%
Second compound 0.0949 µM, first compound 0.0316 µM
  viability, T/C: 76.5%
Second compound 0.0949 µM, first compound 0.1 µM
  viability, T/C: 61.7%
Second compound 0.0949 µM, first compound 0.316 µM
  viability, T/C: 61.9%
Second compound 0.0949 µM, first compound 1 µM
  viability, T/C: 46.3%
Second compound 0.0949 µM, first compound 3.16 µM
  viability, T/C: 36.1%
Second compound 0.0949 µM, first compound 10 µM
  viability, T/C: 29.8%
Second compound 0.3 µM, first compound 0.0316 µM
  viability, T/C: 56.4%
Second compound 0.3 µM, first compound 0.1 µM
  viability, T/C: 54.4%
Second compound 0.3 µM, first compound 0.316 µM
  viability, T/C: 52.7%
Second compound 0.3 µM, first compound 1 µM
  viability, T/C: 37.6%
Second compound 0.3 µM, first compound 3.16 µM
  viability, T/C: 26%
Second compound 0.3 µM, first compound 10 µM
  viability, T/C: 24.4%

## CC(C)n1c(=O)n(C)c2cnc3cc(F)c(-c4ccc(OCCCN5CCCCC5)nc4)cc3c21 + COc1cc2c(cc1O)CCNC21CSC2c3c(OC(C)=O)c(C)c4c(c3C(COC1=O)N1C(O)C3Cc5cc(C)c(OC)c(O)c5C(C21)N3C)OCO4
Second compound 30 pM
  IC50: > 10000 nM
Second compound 94.9 pM
  IC50: > 10000 nM
Second compound 0.0003 µM
  IC50: > 10000 nM
Second compound 0.000949 µM
  IC50: 276 nM
Second compound 0.003 µM
  IC50: < 31.6 nM
Second compound 30 pM, first compound 0.0316 µM
  viability, T/C: 74.8%
Second compound 30 pM, first compound 0.1 µM
  viability, T/C: 73.8%
Second compound 30 pM, first compound 0.316 µM
  viability, T/C: 74.4%
Second compound 30 pM, first compound 1 µM
  viability, T/C: 62.8%
Second compound 30 pM, first compound 3.16 µM
  viability, T/C: 64.2%
Second compound 30 pM, first compound 10 µM
  viability, T/C: 54.7%
Second compound 94.9 pM, first compound 0.0316 µM
  viability, T/C: 77.3%
Second compound 94.9 pM, first compound 0.1 µM
  viability, T/C: 64.4%
Second compound 94.9 pM, first compound 0.316 µM
  viability, T/C: 85.3%
Second compound 94.9 pM, first compound 1 µM
  viability, T/C: 69%
Second compound 94.9 pM, first compound 3.16 µM
  viability, T/C: 61.4%
Second compound 94.9 pM, first compound 10 µM
  viability, T/C: 62.5%
Second compound 0.0003 µM, first compound 0.0316 µM
  viability, T/C: 58.5%
Second compound 0.0003 µM, first compound 0.1 µM
  viability, T/C: 59.9%
Second compound 0.0003 µM, first compound 0.316 µM
  viability, T/C: 58.3%
Second compound 0.0003 µM, first compound 1 µM
  viability, T/C: 72.1%
Second compound 0.0003 µM, first compound 3.16 µM
  viability, T/C: 68.5%
Second compound 0.0003 µM, first compound 10 µM
  viability, T/C: 60%
Second compound 0.000949 µM, first compound 0.0316 µM
  viability, T/C: 63.8%
Second compound 0.000949 µM, first compound 0.1 µM
  viability, T/C: 69.2%
Second compound 0.000949 µM, first compound 0.316 µM
  viability, T/C: 45.3%
Second compound 0.000949 µM, first compound 1 µM
  viability, T/C: 42.2%
Second compound 0.000949 µM, first compound 3.16 µM
  viability, T/C: 46.6%
Second compound 0.000949 µM, first compound 10 µM
  viability, T/C: 57.1%
[1]
  viability, T/C: 5.32%
[2]
  viability, T/C: 5.15%
[3]
  viability, T/C: 3.05%
[4]
  viability, T/C: 3.74%
[5]
  viability, T/C: 6.35%
[6]
  viability, T/C: 6.1%
